Measurements: PMC4063695, “Design of Embedded-Hybrid Antimicrobial Peptides with Enhanced Cell Selectivity and Anti-Biofilm Activity” (PLoS ONE, 2014)

Experiments:
[1] = test system: Gram-negative and Gram-positive strains; assay: MIC over all tested strains (range, geometric mean); assay type: cell-based; design: GM (geometric mean of MIC values from all microbial strains): unit not given here; conditions: all strains of Table 2
Source text: (§1) E. coli ATCC25922, P. aeruginosa ATCC27853, S. aureus ATCC29213, S. epidermidis ATCC12228, S. faecalis ATCC29212 and B. subtilis CMCC63501 were obtained from the College of Veterinary Medicine, Northeast Agricultural University (Harbin, China), E. coli K88, E. coli CVCC1515 and P. aeruginosa ATCC15442 were bestowed by Prof. J.H. Wang (Gene Engineering Laboratory, Feed Research Institute, Chinese Academy of Agricultural Sciences Beijing, China) and E. coli UB1005 was kindly provided by Prof. Q.S. Qi (State Key Laboratory of Microbial Technology, Shandong University, China). […] Briefly, 50 µl of approximate 0.5–1 × 10^6 colony forming units (CFU)/ml of cells were diluted in Mueller-Hinton broth and distributed to 96-well plate, 50 µl of twofold peptides were added and the plates was incubated at 37°C for 18–24 h. The MIC values were calculated as the lowest peptide concentration that prevented visible turbidity and negative control of the pure broth without microbes. The tests were performed at least three times in duplicate.

E. coli ATCC25922 [2] = assay: MIC in the presence of physiological salts; assay type: cell-based, Escherichia coli; design: unit not given here
Source text: as §1
(§2) The stability of peptides was tested in the MIC assay in different environments, including salt sensitivity, human serum, thermal stability and susceptibility to enzymes. For salt sensitivity, 0.5–1 × 10^6 CFU/ml of P. aeruginosa ATCC27853 and E. coli ATCC25922 were treated with peptides, while different salts were added to MHB, and the final concentrations of physiological salts were as follows: 150 mM NaCl, 4.5 mM KCl, 1 mM MgCl2, 6 µM NH4Cl, 8 µM ZnCl2, 4 µM FeCl3 and […] [33]. Except salt sensitivity, only E. coli ATCC25922 was treated with peptides. […] For testing peptide sensitivity to the proteolytic enzymes, the peptides were incubated in advance at 37°C for 1 h with a 1 mg/ml final concentration of the proteolytic enzymes (trypsin, pepsin, papain and proteinase K). For testing thermal stability, incubation occurred at 100°C for 1 h. After these treatments, the procedures were same as MIC assay described above.

P. aeruginosa ATCC27853 = assay: MIC in the presence of physiological salts; assay type: cell-based, Pseudomonas aeruginosa; design: unit not given here
Source text: as §1, §2

E. coli ATCC25922 [3] = assay: MIC after treatment with serum, enzymes and heat; assay type: cell-based, Escherichia coli; conditions: E. coli ATCC25922
Source text: as §1, §2

E. coli UB1005 = assay: Cytoplasmic membrane electrical potential, diSC3-5; assay type: cell-based, Escherichia coli; conditions: diSC3-5 release over 600 s
Method: Peptides could alter the electrical potential of cytoplasmic membrane, and this potential that was measured by using E. coli UB1005 cells and diSC3-5 (Sigma), a membrane potential-sensitive fluorescent dye, as previously described, [35]. E. coli UB1005 was cultured to logarithmic phase in MHB, harvested by centrifugation, washed twice with buffer (5 mM of HEPES and 20 mM of glucose, pH 7.4) and resuspended to an OD600 of 0.05 in the identical buffer. The dye (diSC3-5) was added to above buffer at a final concentration of 0.4 µM. And the bacteria were incubated to take up the dye for 90 min. KCl was added to a final concentration of 0.1 M for equilibrating K^+ concentration between extracellular and intracellular environment, and then the bacteria were incubated at room temperature for 10 min. The cell suspension (2 ml) was placed in a 1-cm cuvette, and the peptides were added to different concentrations. The fluorescence intensity changes were monitored by using an F-4500 fluorescence spectrophotometer (Hitachi, Japan) with an excitation wavelength of 622 nm and an emission wavelength of 670 nm.

[4] = test system: resistant variants of P. aeruginosa; assay: microbe, parasite or virus in culture; assay type: cell-based; conditions: Pseudomonas aeruginosa, ATCC15442
Source text: as §1

[5] = all kinds of salts in physiological concentrations

CC[C@H](C)[C@H](NC(=O)CN)C(=O)NCC(=O)N[C@@H](C)C(=O)N[C@H](C(=O)N[C@@H](CC(C)C)C(=O)N[C@@H](CCCCN)C(=O)N[C@H](C(=O)N[C@@H](CC(C)C)C(=O)N[C@H](C(=O)N[C@H](C(=O)NCC(=O)N[C@@H](CC(C)C)C(=O)N1CCC[C@H]1C(=O)N[C@@H](C)C(=O)N[C@@H](CC(C)C)C(=O)N[C@H](C(=O)N[C@@H](CO)C(=O)N[C@@H](Cc1c[nH]c2ccccc12)C(=O)N[C@H](C(=O)N[C@@H](CCCCN)C(=O)N[C@@H](CCCNC(=N)N)C(=O)N[C@@H](CCCCN)C(=O)N[C@@H](CCCNC(=N)N)C(=O)N[C@@H](CCC(N)=O)C(=O)N[C@@H](CCC(N)=O)C(N)=O)[C@@H](C)CC)[C@@H](C)CC)[C@@H](C)O)[C@@H](C)O)C(C)C)C(C)C [ME26, melittin, reference compound]
GM (geometric mean of MIC values from all microbial strains) [1]: 2.2 | MIC, FeCl3 (E. coli ATCC25922 [2]; 4 µM FeCl3 in MHB): 2 | MIC, NH4Cl (E. coli ATCC25922 [2]; 6 µM NH4Cl in MHB): 2 | MIC, ZnCl2 (E. coli ATCC25922 [2]; 8 µM ZnCl2 in MHB): 4 | MIC, MgCl2 (E. coli ATCC25922 [2]; 1 mM MgCl2 in MHB): 4 | MIC, KCl (E. coli ATCC25922 [2]; 4.5 mM KCl in MHB): 2 | MIC, NaCl (E. coli ATCC25922 [2]; 150 mM NaCl in MHB): 4 | MIC, Mix (E. coli ATCC25922 [2]; [5]): 4 | MIC, CaCl2 (E. coli ATCC25922 [2]; in MHB): 2 | MIC, Control (E. coli ATCC25922 [2]; no added salts, unit not given): 2 | MIC, CaCl2 (P. aeruginosa ATCC27853; 2.5 µM CaCl2 in MHB): 2 | MIC, FeCl3 (P. aeruginosa ATCC27853; 4 µM FeCl3 in MHB): 2 | MIC, NH4Cl (P. aeruginosa ATCC27853; 6 µM NH4Cl in MHB): 2 | MIC, ZnCl2 (P. aeruginosa ATCC27853; 8 µM ZnCl2 in MHB): 2 | MIC, MgCl2 (P. aeruginosa ATCC27853; 1 mM MgCl2 in MHB): 8 | MIC, KCl (P. aeruginosa ATCC27853; 4.5 mM KCl in MHB): 2 | MIC, NaCl (P. aeruginosa ATCC27853; 150 mM NaCl in MHB): 2 | MIC, Mix (P. aeruginosa ATCC27853; [5]): 16 | MIC, Control (P. aeruginosa ATCC27853; no added salts, unit not given): 2 | MIC, Serum 25% (E. coli ATCC25922 [3]; 25% human serum in MHB): 8 | MIC, Serum 50% (E. coli ATCC25922 [3]; 50% human serum in MHB): 8 | MIC, Heat 100°C (E. coli ATCC25922 [3]; peptide incubated at 100°C for 1 h): 2 | MIC, Enzymes Caroid (E. coli ATCC25922 [3]; peptide pre-incubated 1 h at 37°C with 1 mg/ml enzyme (method names papain)): >128 | MIC, Enzymes Pepsin (E. coli ATCC25922 [3]; peptide pre-incubated 1 h at 37°C with 1 mg/ml pepsin): >128 | MIC, Enzymes Proteinase K (E. coli ATCC25922 [3]; peptide pre-incubated 1 h at 37°C with 1 mg/ml proteinase K): 32 | MIC, Enzymes Trypsin (E. coli ATCC25922 [3]; peptide pre-incubated 1 h at 37°C with 1 mg/ml trypsin): >128 | cytoplasmic membrane depolarization (in words) (E. coli UB1005): able to permeabilize the bacterial cell membrane even at a lower concentration than their MICs

CNC(C)C1CCC(N)C(OC2C(N)CC(N)C(OC3OCC(C)(O)C(NC)C3O)C2O)O1 (stereo not shown) [gentamicin]
MIC [4]: > 256 µM
